Assay results published in patent US20250084067A1, “PYRAZOLE-SUBSTITUTED CYCLOPENTANOL ESTER DERIVATIVE AND USE THEREOF” (CHIA TAI TIANQING PHARMACEUTICAL GROUP CO., LTD., priority 2022, published 2025).
Read-outs that look alike come from different tables or passages of the source.

Tests used:
CDK2/CycA2 kinase = CDK2/CycA2 kinase (Homo sapiens (Human), UniProt P24941); assay: Determination of inhibitory activity against CDK2/CycA2 kinase; type: biochemical
Procedure: The wells were set in duplicate, and a control well was set. […] The resulting mixture was left to react at room temperature for 2 h, and then 5 µL of EDTA was added to terminate the reaction, followed by addition of 5 μL of a detection antibody (manufacturer: PerkinElmer, concentration: 8 nM). The mixture was incubated at room temperature for 1 h.

CDK2 CycE1 kinase = CDK2 CycE1 kinase (Homo sapiens (Human), UniProt P24941); assay: Determination of inhibitory activity against CDK2 CycE1 kinase; type: biochemical
Procedure: CDK2 CycE1 kinase solution (concentration: 0.015 ng/μL) was added to assay wells at 6 μL/well, and different compounds dissolved in DMSO were added to the assay wells separately using a nanoliter pipettor, such that the final concentrations of the compounds were 300 nM to 0.07 nM. The wells were set in duplicate, and a control well was set. After incubation of the above system for 30 min, ATP (concentration: 50 μM or 5000 μM) was mixed with ULight-Myelin Basic Protein Peptide substrate (manufacturer: PerkinElmer, concentration: […]) at a ratio of 1:1, and the mixture was added to the assay wells at 4 μL/well. The resulting mixture was left to react at room temperature for 2 h, and then 5 μL of EDTA was added to terminate the reaction, followed by addition of 5 μL of a detection antibody (manufacturer: PerkinElmer, concentration: 8 nM). The mixture was incubated at room temperature for 1 h.

[1] = read-out: CDK2/CycA2 10 μM ATP (kinase) IC50
[2] = read-out: CDK2/CycE1 10 μM ATP (kinase) IC50

Structure (SMILES)	IC50 (CDK2/CycA2 kinase; 10 μM ATP) [nM]	IC50 (CDK2 CycE1 kinase; 10 μM ATP) [nM]	IC50 (CDK2/CycA2 kinase; [1]) [nM]	IC50 (CDK2 CycE1 kinase; [2]) [nM]
CC(C)NC(=O)O[C@@H]1CC[C@H](c2cc(Nc3ccc(S(N)(=O)=O)c(Cl)n3)n[nH]2)C1 [Example 52]	< 10	< 10		
CC(C)NC(=O)O[C@@H]1CC[C@H](c2cc(Nc3ccc(C#N)cc3)n[nH]2)C1 [Example 72]	< 10	< 10		
CC(C)NC(=O)OC1CCC(c2cc(Nc3ncc(NS(C)(=O)=O)cn3)n[nH]2)C1 (stereo not shown) [Example 19]	10 to 50	< 10		
CC(C)NC(=O)O[C@@H]1CC[C@H](c2cc(Nc3cc(OC(F)(F)F)c(NS(C)(=O)=O)cn3)n[nH]2)C1 [Example 31]			< 10	< 10
COc1nc(Nc2cc([C@H]3CC[C@@H](OC(=O)NC(C)C)C3)[nH]n2)ccc1NS(C)(=O)=O [Example 45]	< 10	< 10		
COCCN(C=O)c1ccc(Nc2cc(C3CCC(OC(=O)NC(C)C)C3)[nH]n2)nc1 (stereo not shown) [Example 12]	10 to 50	10 to 50		
CC(C)NC(=O)O[C@@H]1CC[C@H](c2cc(Nc3ccc4c(c3)OCO4)n[nH]2)C1 [Example 39]	< 10	< 10		
CC(C)NC(=O)OC1CCC(c2cc(Nc3ccc4c(n3)OCC4)n[nH]2)C1 (stereo not shown) [Example 21]	< 10	< 10		
CC(C)NC(=O)O[C@@H]1CC[C@H](c2cc(Nc3ccc(NS(C)(=O)=O)c(Cl)n3)n[nH]2)C1 [Example 30]	< 10	< 10		
CC(C)NC(=O)O[C@@H]1CC[C@H](c2cc(Nc3ccc(S(=O)(=O)N(C)C)cn3)n[nH]2)C1 [Example 69]	10 to 50	10 to 50		
CC(=O)Nc1ccc(Nc2cc([C@H]3CC[C@@H](OC(=O)NC(C)C)C3)[nH]n2)nc1 [Example 6]	< 10	< 10		
CC(C)NC(=O)O[C@@H]1CC[C@H](c2cc(Nc3ccc(N4CCCC4=O)cn3)n[nH]2)C1 [Example 14]	< 10	< 10		
CC(C)NC(=O)O[C@H]1CC[C@@H](c2cc(Nc3ccc(NS(C)(=O)=O)c(C(F)(F)F)c3)n[nH]2)C1 [Example 50]	< 10	< 10		
CC(C)NC(=O)O[C@@H]1CC[C@H](c2cc(Nc3ccc(N=S(C)(C)=O)cc3)n[nH]2)C1 [Example 59]	10 to 50	10 to 50		
CC(C)NC(=O)O[C@@H]1CC[C@H](c2cc(Nc3ccc(N4CCCC4=O)c(F)c3)n[nH]2)C1 [Example 35]	< 10	< 10		
CC(C)NC(=O)O[C@@H]1CC[C@H](c2cc(Nc3ccc4c(c3)CC(=O)N4)n[nH]2)C1 [Example 42]	< 10	< 10		
CC(C)NC(=O)O[C@@H]1CC[C@H](c2cc(Nc3ccc(N4CCCC4=O)c(Cl)n3)[nH]n2)C1 [Example 57]			< 10	< 10
[2H]C([2H])([2H])C([2H])(NC(=O)O[C@@H]1CC[C@H](c2cc(Nc3ccc4c(c3)CS(=O)(=O)C4)n[nH]2)C1)C([2H])([2H])[2H] [Example 78]	< 10	< 10		
CC(C)NC(=O)OC1CCC(c2cc(NC3CCN(S(C)(=O)=O)CC3)n[nH]2)C1 (stereo not shown) [Example 22]	10 to 50	10 to 50		
CC(C)NC(=O)O[C@@H]1CC[C@H](c2cc(Nc3ccc(-c4cnco4)cn3)n[nH]2)C1 [Example 36]	10 to 50	< 10		
CC(=O)N(C)c1ccc(Nc2cc([C@H]3CC[C@@H](OC(=O)NC(C)C)C3)[nH]n2)nc1 [Example 4]	10 to 50	10 to 50		
CC(C)NC(=O)O[C@@H]1CC[C@H](c2cc(Nc3ccc(S(N)(=O)=O)cc3)n[nH]2)C1 [Example 65]	< 10	< 10		
C[C@H](NC(=O)O[C@@H]1CC[C@H](c2cc(Nc3ccc4c(c3)CS(=O)(=O)C4)n[nH]2)C1)C(F)(F)F [Example 63]			< 10	< 10
CC(C)NC(=O)O[C@@H]1CC[C@H](c2cc(Nc3ccc(N(C)S(C)(=O)=O)cn3)n[nH]2)C1 [Example 2]	10 to 50	10 to 50		
CC(C)NC(=O)O[C@@H]1CC[C@H](c2cc(Nc3ccc(S(N)(=O)=O)c(C(F)(F)F)c3)n[nH]2)C1 [Example 66]	< 10	< 10		
CC(C)NC(=O)O[C@@H]1CC[C@H](c2cc(Nc3ccc4c(c3)S(=O)(=O)CC4)n[nH]2)C1 [Example 75]	10 to 50	< 10		
